Experimental data as given in patent publication US11260042B2, “Pharmaceutical combination for the treatment of cancer” (ABILITY PHARMACEUTICALS S.L., priority 2017, dated 2022).
Where two headings read alike, the source gives them in different places. One block for each compound: values may come before it.

What was measured:
[1] = type: in vivo
Experimental: Methods: Forty-five female CD-1 mice were distributed by means of the body weight stratification method into nine experimental groups (A-I) (5 animals for group) that differed in the treatment or in the day on which the reference items (paclitaxel and carboplatin) were administered.
The table below summarizes the treatment groups. Please note that the same administration schedule and doses were administered as in the previous efficacy studies.
The safety assessment relied on observed mortality, local and systemic clinical signs, body weight and food consumption recorded throughout the whole study. In addition, clinical pathology determinations (biochemistry and hematology) were performed before sacrifice in all animals. At the end of the observation period (one day after the last administration), all surviving animals were sacrificed and subjected to a gross necropsy. Moreover, the safety assessment was also based on the weight of selected target organs collected at sacrifice.

[2] = tested on: SH-SY5Y human neuroblastoma xenograft; type: in vivo, Nu/nu female mice
Experimental: Methods: Immunodeficient athymic NMRI-Foxn1^nu/Foxn1^nu nude mice were subcutaneously injected with SH-SY5Y cells. This cell line was genetically modified to express luciferase, which would allow the in vivo study not only of tumor size, but also of metastasis formation. When tumors reached an average volume of 80 mm^3, mice were randomly distributed into different treatment groups. ABTL0812 was administered orally at 120 mg/kg daily. In parallel we used cisplatin, a drug included in the chemotherapy induction phase for the treatment of neuroblastoma. Cisplatin was administered at 2 mg/kg i.p. twice a week (Wang et al. 2010). Additionally, we studied the effect of combining ABTL0812 with cisplatin at the indicated doses.
C. Metastasis formation. In order to investigate the effect of ABTL0812 in metastasis formation we used a SH-SY5Y cell line transduced with a luciferase reporter vector. As described above, mice bearing xenograft tumors derived from this cell line were treated with ABTL0812, cisplatin or the combination of both drugs. After ten days of treatment animals were sacrificed and metastasis were assessed ex vivo by monitoring luciferase-expressing cells in lung and liver.

[3] = tested on: A549 (human lung carcinoma) cell line; experiment: Cell viability (MTT) of ABTL0812 in combination with docetaxel in lung cancer; type: cell-based; conditions: Homo sapiens, 72 h, A549, three days, FBS 0.5%, single agent
Experimental: Methods: A549 cells were incubated with increasing concentrations of ABTL0812 (3-300 μM), docetaxel (0.01-100 μM), or a combination of both (subIC50, i.e., 20 μM fixed concentration of ABTL812 and 0.01-100 μM docetaxel) for three days (FBS 0.5%). […] In the denominator, (Dx)1 is for D1“alone” that inhibits a system x %, and (Dx)2 is for D2“alone” that inhibits a system x %.

[4] = tested on: A549 human lung adenocarcinoma xenograft; type: in vivo; conditions: ABTL0812 30 mg/kg/day oral 5 times a week; docetaxel 5 mg/kg i.p. once a week
Experimental: Methods: Mice were injected with 5×10^6 A549 cells in each flank to induce tumor formation. […] ABTL0812 was administered by the oral route at 30 mg/kg/day, 5 times a week. Docetaxel 5 mg/kg was administered intra-peritoneally once a week (Coxon et al. 2012). Tumor volume and body weight were monitorized 3 times a week.

[5] = tested on: MiaPaca2 (human pancreatic carcinoma); experiment: Cell viability (MTT) of ABTL0812 alone or with gemcitabine in pancreatic cancer; type: cell-based; conditions: Homo sapiens, MIA PaCa-2; MiaPaca2, 72h, 0.5% FBS, MTT, single agent
Experimental: Methods: MiaPaca2 cells were seeded in 24-well plates together with gemcitabine (0.01-100 μM), ABTL812 (3-300 μM), or a combination of both (subIC50, i.e., 25 μM fixed concentration of ABTL0812 with 0.01-100 μM gemcitabine) and left in the incubator for 72h (0.5% FBS). Cell viability was studied by the MTT assay and several parameters were determined to evaluate a possible synergism. First the IC50 for each drug alone or the combination was calculated. Then, synergism (CI) was calculated as described above.

[6] = tested on: MiaPaca2 human pancreatic cancer xenograft; experiment: Human pancreatic xenograft (MiaPaca-2), gemcitabine and Nab-paclitaxel/gemcitabine; type: in vivo, Athymic Nude-Foxn1nu female mice; conditions: ABTL0812 120 mg/kg oral 5 times a week; gemcitabine 60 mg/kg, Nab-Paclitaxel 5 mg/kg i.p. 2 times a week (suboptimal chemotherapy dose)
Experimental: It is important to change the site of injection to avoid intestinal necrosis and keep Nab-Paclitaxel and gemcitabine injections as far as possible one from the other in mice abdomen. • Gemcitabine+ABTL0812 (n=10): treated orally with 120 mg/kg of ABTL0812 in 200 μl of distilled water+5% glycerol, 5 times a week and with 60 mg/kg of gemcitabine administered i.p in 100 μl of sterile water, 2 times a week. ABTL0812 was always administered before chemotherapy with the aim of reducing the stress derived from the i.p. injection, that is normally applied as the last administration. • Gemcitabine+Nab-Paclitaxel+ABTL0812 (n=8): treated orally with 120 mg/kg of ABTL0812 in 200 μl of distilled water+5% glycerol, 5 times a week, with 60 mg/kg of gemcitabine administered i.p. in 100 μl of sterile water, 2 times a week and with 5 mg/kg of Nab-Paclitaxel administered i.p. in 230 μl of 0.9% NaCl solution 2 times a week. As in the gemcitabine+Nab-Paclitaxel group, injections where administered in separated areas of the abdomen. […]
Treatment efficacy was assessed by measuring tumor volume three days a week. Additionally, total body weight was monitored three days a week to test the toxicity associated with the treatments in addition to visual examination of signs indicative of clinicopathological symptoms. […]

[7] = tested on: H157 cells; experiment: Cell viability (MTT) of ABTL0812 in combination with paclitaxel, H157; type: cell-based, human; conditions: Homo sapiens, NCI-H157; H157, 48 hours, 0.1% FBS, single agent
Experimental: (§1) Methods: A549 cells were incubated with increasing concentrations of ABTL0812 (3-300 μM), paclitaxel (0.003-1 μM), or a combination of both using subIC50 fixed concentration of ABTL0812 and 0.003-1 μM paclitaxel for 72 hours in DMEM with 0.1% FBS. H157, H1957 and HTB-812 cells were incubated with increasing concentrations of paclitaxel (0.001-10 μM) alone and in combination with subIC50 fixed concentration of ABTL0812 for 48 hours in DMEM with 0.1% FBS. Cell viability was evaluated in all cases by MTT assay and IC50's were calculated for paclitaxel and the combination. The concentrations of the combinations for the different cell lines were:
(§2) Finally, the Combination Index (CI), as described in the previous section, was calculated for the values of paclitaxel IC50.

[8] = tested on: H1957 cells; experiment: Cell viability (MTT) of ABTL0812 in combination with paclitaxel, H1957; type: cell-based, human; conditions: Homo sapiens; H1957, 48 hours, 0.1% FBS, single agent
Experimental: as §1, §2

[9] = tested on: HTB-812 cells; experiment: Cell viability (MTT) of ABTL0812 in combination with paclitaxel, HTB-812; type: cell-based, human; conditions: Homo sapiens; HTB-812, 48 hours, 0.1% FBS, single agent
Experimental: as §1, §2

[10] = tested on: MDB-DA-231 (human triple negative breast cancer); experiment: Cell viability (MTT) of ABTL0812 alone or with paclitaxel in breast cancer; type: cell-based; conditions: Homo sapiens; MDB-DA-231, 48h, 0.5% FBS, MTT, single agent
Experimental: Methods: MDB-DA-231 cells were seeded in 24-well plates together with increasing concentration of paclitaxel (1-100 nM) in the presence of 5, 10 and 20 μM of ABTL0812 (all doses below to an IC25) for 48h (0.5% FBS). Cell viability was studied by the MTT assay and several parameters were determined to evaluate a possible synergism. First the IC50 for each drug alone or the combination was calculated.

[11] = tested on: LA1-5S neuroblastoma cell line; experiment: Cell viability (crystal violet) of ABTL0812 with retinoic acid, LA1-5S; conditions: 24h
Experimental: (§3) Methods: LA1-5S and SK-N-BE(2) cells were incubated with a subIC50 fixed concentration of ABTL0812 (30 μM), increasing concentrations of 10 μM, 20 μM and 30 μM of retinoic acid or a combination of both. […] Cells were treated for 24h in IMDM with 0.5% FBS. Cell viability was evaluated in all cases by crystal violet assay. Different doses were assessed in six replicates and the results shown are the average of two independent experiments. Statistical analyses were performed according to the T-Test principle with GraphPad Prism® 5.0 software (* p<0.05; ** p<0.01; *** p<0.001)..

[12] = tested on: SK-N-BE(2) human neuroblastoma cell line; experiment: Cell viability (crystal violet) of ABTL0812 with retinoic acid, SK-N-BE(2); conditions: 24h
Experimental: as §3

SMILES: N.N.O=C([O-])C1(C(=O)[O-])CCC1.[Pt+2] [Carboplatin]
- Body Weight Gain D 1-4 ([1]; ABTL0812 120 mg/kg p.o. days 2-6, 9-13, paclitaxel 15, carboplatin 50 mg/kg i.p. D 2/9): -0.626 g
- Biochemistry Creat ([1]; PTX/CP on D 2/9): 8.83 µmol/L
- Biochemistry Triglyc ([1]; PTX/CP on D 2/9): 1.35 mmol/L
- Biochemistry Urea ([1]; PTX/CP on D 2/9): 9.50 mmol/L
- Body Weight Gain D 8-11 ([1]; PTX/CP on D 2/9): -0.450 g
- Hematology PLT ([1]; PTX/CP on D 2/9): 790 ×10^3/μL
- Hematology RBC ([1]; PTX/CP on D 2/9): 8.40 ×10^6/μL
- Hematology WBC ([1]; PTX/CP on D 2/9): 7.09 ×10^3/μL

SMILES: N.N.[Cl][Pt][Cl] [Cisplatin, reference compound]
- Hematocrit ([2]; mouse, in vivo): 37.3 ± 2.7%
- RBC ([2]; mouse, in vivo): 6.8 ± 0.9 ×10^6/μL
- WBC ([2]; mouse, in vivo): 3.0 ± 0.6 ×10^3/μL
- hematological safety ([2]; mouse, in vivo): induced anemia and reduced white blood cell count
- metastasis formation in lung and liver ([2]; ten days of treatment, luciferase-expressing cells ex vivo): no significant effect in inhibiting metastasis formation

SMILES: CC(=O)O[C@@]12CO[C@@H]1C[C@H](O)[C@@]1(C)C(=O)[C@H](O)C3=C(C)[C@@H](OC(=O)[C@H](O)[C@@H](NC(=O)OC(C)(C)C)c4ccccc4)C[C@@](O)([C@@H](OC(=O)c4ccccc4)[C@H]21)C3(C)C [Docetaxel, reference compound]
- IC50 [3]: 1.7 µM
- tumor volume [4]: similarly reduced tumor volume

- IC50 [5]: 10.2 µM
SMILES: Nc1ccn([C@@H]2O[C@H](CO)[C@@H](O)C2(F)F)c(=O)n1 [Gemcitabine, reference compound]
- tumor volume [6]: do not show significant difference in tumor volume compared with vehicle group

- IC50 [7]: 4.19 µM
- IC50 [8]: 3.68 µM
- IC50 [10]: 0.0087 µM
- Biochemistry Creat ([1]; mouse, in vivo): 9.74 µmol/L
- Biochemistry Triglyc ([1]; mouse, in vivo): 1.31 mmol/L
- Biochemistry Urea ([1]; mouse, in vivo): 9.50 mmol/L
- Hematology PLT ([1]; mouse, in vivo): 1378 ×10^3/μL
- Hematology RBC ([1]; mouse, in vivo): 9.59 ×10^6/μL
- Hematology WBC ([1]; mouse, in vivo): 6.28 ×10^3/μL
SMILES: CC(=O)O[C@H]1C(=O)[C@@]2(C)[C@H]([C@H](OC(=O)c3ccccc3)[C@]3(O)C[C@H](OC(=O)[C@H](O)[C@@H](NC(=O)c4ccccc4)c4ccccc4)C(C)=C1C3(C)C)[C@]1(OC(C)=O)CO[C@@H]1C[C@@H]2O [Paclitaxel]
- IC50 [9]: 2.71 µM
- Body Weight Gain D 8-11 ([1]; mouse, in vivo): 0.442 g

SMILES: CC1=C(/C=C/C(C)=C/C=C/C(C)=C/C(=O)O)C(C)(C)CCC1 [retinoic acid]
- cytotoxicity ([11]; LA1-5S, 30 μM ABTL0812, retinoic acid 10-30 μM): even lower
- cell viability ([11]; LAI-5S cells, combination with low concentration of ABTL0812): 82.8%
- cell viability ([12]; SK-N-BE(2) cells, combination with low concentration of ABTL0812): 70.4%
- cytotoxicity ([12]; SK-N-BE(2), 30 μM ABTL0812, retinoic acid 10-30 μM): even lower
